Measurements: patent US20230285570A1, “THERAPEUTICALLY USEFUL CURE-PRO MOLECULES FOR E3 LIGASE MEDIATED DEGRADATION OF PROTEINS, AND METHODS OF MAKING AND USING THEM” (CORNELL UNIVERSITY, priority 2020, published 2023)
Entries after “also recorded” stand apart in the source; their conditions may differ.

What was measured:
Assay type in all cases: cell-based
BRD4 [1] = target: T1, BRD4 (Homo sapiens, UniProt O60885); assay: CURE-PRO-mediated BRD4 degradation in MCF7 cells, Western blot; design: endogenous in cells; settings: 1:1 with VHL ligand 8305, MCF7, 24 h, 100 nM-10 μM
Method: (§1) Namalwa, Ramosm HeLa, MCF7, or HT29 HCT116 cells (2.5-3×10^6) were treated for 24 hours with the indicated compounds solubilized in DMSO. The cells were washed in ice-cold PBS and were then lysed in RIPA lysis buffer (150 mM NaCl, 5 mM EDTA, 1% NP-40, 0.5% sodium deoxycholate, 0.1% SDS, 50 mM Tris, pH 8.0.) with Roche protease inhibitor complete cocktail and phosphatase inhibitors (10 mM sodium fluoride, 10 mM sodium pyrophosphate, 1 mM sodium orthovanadate and 20 mM β-glycerophosphate). The total protein concentrations were determined by Bradford Protein Assay (Pierce) and 10-20 μg of protein was loaded onto 4-15% Tris-Glycine gradient gels (Biorad). After standard gel electrophoresis, the separated proteins were transferred to PVDF membrane by wet transfer. The immunoblots were then blocked for 1 hour in 5% skim milk in TBST or 5% BSA in TBST, according to manufacturer's instructions, before an overnight incubation at 4° C. with indicated antibodies and membranes. Membranes were then incubated with the appropriate horseradish peroxidase-conjugated secondary antibodies (1:5,000 dilution) for 1 h at room temperature and the bands were visualized using the Clarity Max Western ECL Substrate (Biorad) and the ChemiDoc Imaging System (Biorad). Signal was detected with ECL Western Blotting Substrate (Pierce) and X-ray film processed with a Konica SRX-101 X-ray film processor or captured by Bio-Rad's Chemidoc Imaging system.
MCF7 cells (3×10^6) were treated for 24 h with the compounds solubilized in DMSO. Compounds were added at 100 nM-10 μM. Standardized protein samples were electrophoresed and imaged as described in the Immunoblotting section above. FIG. 69 depicts the CURE-PRO-mediated BRD4 degradation for the BRD-E9 monomer and VHL ligands 8305 combined in a 1:1 ratio, and FIG. 70 depicts the CURE-PRO-mediated BRD4 degradation for the BRD-E20 monomer and 8305.
MCF7 cells (3×10^6) were treated for 24 h with the compounds solubilized in DMSO. Compounds were added at 1 μM-10 μM. Standardized protein samples were electrophoresed and imaged as described in the Immunoblotting section above. FIG. 71 depicts the CURE-PRO-mediated BRD4 degradation for the BRD-E50 monomer and VHL ligands 8305 and 8304 combined in a 1:1 ratio.

BRD4 [2] = target: T1, BRD4; assay: Summary of BRD4 degradation by CURE-PRO pairs, estimated from Western Blot or WES; design: endogenous in cells; settings: for Degradation of BRD4, combination with CRBN ligand 8047: Table 1, aryl-boronic acid BRD4 ligand + 8047
Method in brief: (§2)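 Namalwa, Ramos, HeLa, MCF7, HT29 or HCT116 cells treated 24 h with compounds in DMSO; RIPA lysates analysed by Western blot (ECL) or capillary WES immunodetection. Check mark denotes 30% to 70% or higher protein degradation.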

caspase 3/7 = assay: Caspase-Glo 3/7 assay, Namalwa cells; settings: 1:1 with CRBN ligand 8047, Namalwa, 24 h
Method: Caspase-glo® assay (Promega) was conducted following the manufacturer's recommendations. Cells were seeded at a density of 5000 cells/well in a white 96 well plates (Corning, #3917) in a total volume of 100 μl with respective monomers, combinations of BRD ligands together with E3 ligase ligands or vehicle control treatment. After a 24 h incubation, 100 μl of the […] substrate was added per well and luminescence was read on a Spectramax M5 (Molecular Devices).
Namalwa cells (5×10^4) were treated for 24 hours with the compounds solubilized in DMSO. FIG. 57 is a bar graph depiction of fold increase of apoptosis assessed via caspase 3/7 activity using the Caspase-Glo assay (Promega) described above.
Molm-13 (FIG. 76A) or Namalwa (FIG. 76B) cells (5×10^4) were treated for 24 hours with the compounds solubilized in DMSO in white 96 well plates (10 nM-10 μM solubilized in DMSO). FIG. 76 is a bar graph depiction of fold increase of apoptosis assessed via caspase 3/7 activity using the Caspase-Glo assay (Promega) described above.

BRD4 [3] = target: T1, BRD4; assay: CURE-PRO-mediated BRD4 degradation in HeLa cells, Western blot; design: endogenous in cells; host or cells: HeLa; settings: 24 h
Method in brief: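 HeLa cells (2.5×10^6) treated 24 h with DMSO-solubilized compounds, degrader pairs combined 1:1, at 1 nM-1 μM, 1-10 μM, 10 μM or 10 and 100 μM each depending on series. RIPA lysates (10-20 μg protein) run on SDS-PAGE and immunoblotted for BRD4 with ECL detection.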

BRD4 [4] = target: T1, BRD4; assay: CURE-PRO-mediated BRD4 degradation in HeLa cells, WES capillary electrophoresis (ProteinSimple); design: endogenous in cells; host or cells: HeLa
Method: All cell lines were purchased from ATCC or DSMZ and grown at 37° C. with 5% CO2. Human HeLa cells were cultured in complete growth medium (Dulbecco's modified Eagle's medium (DMEM) supplemented with 10% FBS); MCF7 cells were cultured in complete growth medium (Dulbecco's modified Eagle's medium (DMEM) supplemented with 10% FBS and 0.01 mg/ml human recombinant insulin (Sigma Aldrich); Namalwa and Ramos cells were cultured in complete growth medium (RPMI 1640 medium supplemented with 10% FBS); HCT116 and HT29 cells were cultured in complete growth medium (McCoy's 5a Medium supplemented with 10% FBS). For cellular degradation of BRD4 studies cells were seeded in a 12-well plate at 70-80% confluency, allowed to attach overnight, and incubated with the indicated compounds for the indicated time. When indicated, a 15-minute pretreatment with 10 μM pomalidomide, 10 μM VHL298, 10 μM Nutlin3a, 1 μM MG-132 or 1 μM Carfilzomib was performed before the addition of CURE-PROs. For washout studies, after CURE-PRO treatment, media was aspirated and incubated with complete medium for the indicated time before lysis.
(§3) WES Simple analysis was performed on WES system (ProteinSimple-Biotechne) according to the manufacturer's instructions. Total protein concentrations of cell lysates were determined by the Pierce BCA kit (Thermo Fisher). 3 μL of 0.3 μg/μL of the protein lysate was loaded onto a 12- to 230-kDa WES assay plate (ProteinSimple) where 300 nL sample was withdrawn through a capillary, subjected to electrophoretic separation of proteins by size, and followed by the simultaneous, HRP-based detection of proteins using the Anti-Rabbit Detection Module (Proteinsimple: #DM-001). The electropherograms were checked then the automatic peak detection was manually corrected if it was required.
HeLa cells (2.5×10^6) were treated for 4-24 hours with the compounds solubilized in DMSO. After 4 hours, indicated points were washed and cells were left in full growth media. Compounds were added at 10 μM each. Standardized protein samples were electrophoresed and imaged as described in the WES ProteinSimple section above. FIGS. 44 and 45 depict the time-dependence of CURE-PRO-mediated BRD4 degradation with the BRD-E52 ligand (FIG. 44) and BRD-E72 ligand (FIG. 45), both JQ1 derivatives comprising of boronic acid linkers, and the CRBN binding ligands (8046, 8047, and 8066), pomalidomide derivatives comprising diol linkers.
HeLa cells (2.5×10^6) were treated for 24 hours with the compounds solubilized in DMSO. Compounds were added at 100 nM-10 μM each. Standardized protein samples were electrophoresed and imaged as described in the WES ProteinSimple section above. FIG. 46 depicts the concentration-dependence of CURE-PRO-mediated BRD4 degradation and the requirement for monomer dimerization.

c-MYC [5] = target: T2, c-MYC (Homo sapiens, UniProt P01106); assay: Summary of C-MYC degradation by CURE-PRO pairs, estimated from Western Blot or WES; design: endogenous in cells; host or cells: HT29; settings: for Degradation of C-MYC, combination with MDM2 ligand 8310: Table 11, aromatic 1,2-diol MYC ligand + 8310; for Degradation of C-MYC, combination with MDM2 ligand 8312: Table 11, aromatic 1,2-diol MYC ligand + 8312
T2 sequence (P01106 whole entry): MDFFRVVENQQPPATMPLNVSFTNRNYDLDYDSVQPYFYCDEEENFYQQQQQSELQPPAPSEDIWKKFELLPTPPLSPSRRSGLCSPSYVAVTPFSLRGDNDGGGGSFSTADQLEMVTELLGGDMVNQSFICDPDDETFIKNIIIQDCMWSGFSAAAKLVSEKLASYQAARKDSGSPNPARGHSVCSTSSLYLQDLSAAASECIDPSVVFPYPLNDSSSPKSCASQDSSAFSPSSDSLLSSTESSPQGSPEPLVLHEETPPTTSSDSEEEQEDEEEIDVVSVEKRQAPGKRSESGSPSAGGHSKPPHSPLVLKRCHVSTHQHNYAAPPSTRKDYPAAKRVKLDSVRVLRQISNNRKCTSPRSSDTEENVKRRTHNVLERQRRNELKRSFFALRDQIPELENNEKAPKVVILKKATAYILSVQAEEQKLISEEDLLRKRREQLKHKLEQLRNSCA
Method in brief: as §2

c-MYC [6] = target: T2, c-MYC; assay: CURE-PRO-mediated c-MYC degradation in HCT1116 cells, Western blot or WES; design: HT29 cells (2.5×10^6) were treated for 24 h with the compounds solubilized in DMSO; endogenous in cells; host or cells: HT29; settings: 1:1 with MDM2 ligand 8310, HCT1116, 24 h, 10 nM-10 μM each
c-MYC [7] = target: T2, c-MYC; assay: as above; design: endogenous in cells; host or cells: HT29; settings: 1:1 with MDM2 ligand 8312, HCT1116, 24 h, 10 nM-10 μM each
Method: as §1, §3
HCT1116 cells (2.5×10^6) were treated for 24 h with the compounds solubilized in DMSO. Compounds were added at 10 nM-10 μM each. Standardized protein samples were electrophoresed and imaged as described in the immunoblotting or WES (Proteinsimple) sections above. c-MYC monomers, MYC-N20 (FIG. 100, a 10074-G5 derivative comprising diol linkers), and MYC-N10 (FIG. 101), MYC-N6 (FIG. 102), and MYC-N9 (FIG. 103) (10058-F4 derivatives comprising diol linkers), and MDM2 ligands, 8310 and 8312 (Nutlin 3a derivatives comprising boronic acid linkers) were combined in a 1:1 ratio.
HCT1116 cells (2.5×10^6) were treated for 24 h with the compounds solubilized in DMSO. Compounds were added at 1 μM-10 μM each.

COc1ccc2c(c1)C(c1ccc(Cl)cc1)=N[C@@H](CC(=O)NCc1ccc(B(O)O)cc1)c1nnc(C)n1-2 [BRD-E9, (4-((2-((4S)-6-(4-chlorophenyl)-8-methoxy-1-methyl-4H-benzo[f][1,2,4]triazolo[4,3-a][1,4]diazepin-4-yl)acetamido)methyl)phenyl)boronic acid]
BRD4 degradation (BRD4 [1]): there is degradation of BRD4
Degradation of BRD4, combination with CRBN ligand 8047 (BRD4 [2]): √ (A black check mark indicates efficacy of 30% to 70% or higher protein degradation)
Degradation of BRD4, combination with VHL ligand 8305 (BRD4 [2]; Table 3, aryl-boronic acid BRD4 ligand + 8305): √ (A black check mark indicates efficacy of 30% to 70% or higher protein degradation)

CCNC(=O)C[C@@H]1N=C(c2ccc(Sc3cccc(B(O)O)c3)cc2)c2cc(OC)ccc2-n2c(C)nnc21 [BRD-E52, (3-((4-((4S)-4-(2-(ethylamino)-2-oxoethyl)-8-methoxy-1-methyl-4H-benzo[f][1,2,4]triazolo[4,3-a][1,4]diazepin-6-yl)phenyl)thio)phenyl)boronic acid]
caspase 3/7 activation (caspase 3/7): demonstrates activation of caspase 3/7; also recorded: marked caspase activation
Degradation of BRD4, combination with CRBN ligand 8047 (BRD4 [2]): √ (A black check mark indicates efficacy of 30% to 70% or higher protein degradation)
Degradation of BRD4, combination with CRBN ligand 8066 (BRD4 [2]; Table 1, aryl-boronic acid BRD4 ligand + 8066): √ (A black check mark indicates efficacy of 30% to 70% or higher protein degradation)
BRD4 degradation after pomalidomide preincubation (BRD4 [3]; 1:1 with 8047, 10 μM, pomalidomide preincubated 15 min at equimolar concentration): inhibition of CURE-PRO-mediated BRD4 degradation
BRD4 degradation (BRD4 [3]; BRD ligand with pomalidomide (no 8047), HeLa, 10 μM): failed to induce BRD4 degradation
BRD4 degradation (BRD4 [3]; co-treated 1:1 with CRBN ligand 8047, HeLa, 10 μM each): causes degradation of BRD4; also recorded: CURE-PRO-mediated degradation of BRD4
sustained BRD4 degradation after drugs are washed out (BRD4 [4]; co-dosed with 8047, 10 μM each, washed after 4 h): up to 8 h
BRD4 degradation, time course (BRD4 [4]; co-dosed with CRBN ligand 8047, HeLa, 10 μM each, 4-24 h): marked BRD4 degradation after 4 h
concentration-dependent BRD4 degradation (BRD4 [4]; co-dosed with CRBN ligand 8047, HeLa, 24 h, 100 nM-10 μM each): marked BRD4 degradation
concentration from which BRD4 protein expression decreases (BRD4 [4]; with CRBN ligand 8047, HeLa, 24 h, 100 nM-10 μM each): ≥ 300 nM

CCc1ccc(/C=C2\SC(=O)N(CCCc3cccc(O)c3O)C2=O)cc1 [MYC-N6]
Degradation of C-MYC, combination with MDM2 ligand 8310 (c-MYC [5]): √ (A black check mark indicates efficacy of 30% to 70% or higher protein degradation)
c-MYC degradation (c-MYC [6]): caused degradation of c-MYC protein; also recorded: Degradation was noted

O=C(NCCNC(=O)c1cccc(O)c1O)c1ccc(Nc2ccc([N+](=O)[O-])c3nonc23)cc1 [MYC-N20]
c-MYC degradation (c-MYC [7]): negligible effects
Degradation of C-MYC, combination with MDM2 ligand 8310 (c-MYC [5]): √ (A black check mark indicates efficacy of 30% to 70% or higher protein degradation)
Degradation of C-MYC, combination with MDM2 ligand 8312 (c-MYC [5]): √ (A black check mark indicates efficacy of 30% to 70% or higher protein degradation)
c-MYC degradation (c-MYC [6]): caused degradation of c-MYC protein

CCc1ccc(/C=C2\SC(=O)N(CCOCCNC(=O)c3cccc(O)c3O)C2=O)cc1 [MYC-N10]
c-MYC degradation (c-MYC [7]): caused degradation of c-MYC at higher concentrations; also recorded: Degradation was noted
Degradation of C-MYC, combination with MDM2 ligand 8312 (c-MYC [5]): √ (A black check mark indicates efficacy of 30% to 70% or higher protein degradation)
c-MYC degradation (c-MYC [6]): caused degradation of c-MYC at higher concentrations; also recorded: Degradation was noted
